In patent publication US20150140125A1, “SYNERGISTIC CANCER THERAPY DRUG COMBINATIONS” (Life Plus, LLC, priority 2013, published 2015):
“Also recorded” adds a separate entry of the source.

Key:
Format in all cases: cell-based
[1] = tested on: human alveolar adenocarcinoma cell line (H358)
Excerpt: Pub. […] Cells were pipetted into the mold and allowed 3-5 days to form 3-D clusters, mimicking miniature tumors. The cell clusters were removed from the mold by washing and gentle pipetting. The cell clusters were placed in media containing 0.5% FBS. The clusters were dispensed into 96-well plates at a density of approximately 12-15 clusters per well for testing with the therapeutic composition designated herein as “GZ17” and a known chemotherapeutic agent (doxorubicin, aka adriamycin).
The cell clusters were tested against GZ17 and doxorubicin individually at various dosages, and then against the combination therapeutic containing both agents.
(§1) 96-well cell culture plates were loaded with increasing doses of GZ17 (graph on left) within a row. The doses were each added to 8 rows of each plate for 8 replicates at each dose. Cell clusters were pipetted into each well, and exposed for 24 hours to GZ17. At the completion of 24 hours, the wells were treated with 20 microliters of Prestoblue and allowed to incubate for up to 4 hours. The plates were read at 2-4 different time points after exposure to Prestoblue ranging from 30 minutes to 4 hours. The one-hour time point was the most often used and reported. The plates were loaded into a Perkin Elmer Enspire plate reader and each well was excited at 490 nm and read at 560 nm wavelengths. Relative fluorescence for each well was read.
The chemotherapy classification of paclitaxel (also known as taxol) is a mitotic inhibitor. It works by stabilizing the microtubules. The microtubules are part of the cytoskeleton of the cell. When the cells go into cell division, the microtubules must disassemble so that the cell can divide. However, with paclitaxel, the microtubule polymer can't disassemble, and thus the cells can't divide which triggers apoptosis, or programmed cell death. There are subcategories of drugs in the mitotic inhibitor class including the vinca alkaloids (vincristine and vinblastine) and the colchicines class, podophyllotoxin and griseofulvin. Other drugs that work like paclitaxel are the taxanes and docotaxel.
The study was again repeating using fluorouracil. Fluorouracil is an anti-metabolite chemotherapy. It mimics pyrimidine and incorporates into the DNA and RNA blocking the ability of the cell to divide, and eventually ending in death of the cancer cells. Other drugs in this category include cytarabine and 6-azauracil.
(§2) The powder was reconstituted in deionized water and agitated to ensure substantial homogeneity.

[2] = tested on: human ovarian cancer cell line (A1847); assay: 3-D ovarian cancer cell cluster viability (Prestoblue fluorescence); conditions: for doses giving a statistically significant decrease in live cells: agent alone; for dose that had to be reached before the agent alone had an effect: ovarian cancer spheroids
Procedure: as §1
The human ovarian cancer cell line (A1847) was used to create miniature tumors by loading the individual cells in a micromold according to U.S. Pat. App. Pub. […] Cells were pipetted into the mold and allowed 2-3 days to form 3-D clusters, mimicking miniature tumors. Cell clusters were removed from the mold by washing and gentle pipetting. Cell clusters were placed in media containing 0.5% FBS. The clusters were dispensed into 96-well plates at a density of approximately 10-15 clusters per well. […]
as §2

[3] = tested on: human ovarian cancer cell line (A1847); assay: as above; conditions: paclitaxel alone at 3.16 μM

SMILES: O=C(O)CCCc1ccc(N(CCCl)CCCl)cc1 [chlorambucil]
- effect of the agent alone on lung cancer spheroids ([1]; agent alone): no effect
- effect of the agent alone on ovarian cancer clusters [2]: no effect on its own

SMILES: N.N.[Cl][Pt][Cl] [cisplatin]
- doses giving a statistically significant decrease in live cells [2]: ≥ 31.6 µM
- dose that had to be reached before the agent alone had an effect [2]: ≥ 10 µM

SMILES: COc1cccc2c1C(=O)c1c(O)c3c(c(O)c1C2=O)C[C@@](O)(C(=O)CO)C[C@@H]3O[C@H]1C[C@H](N)[C@H](O)[C@H](C)O1 [doxorubicin]
- relative fluorescence (live cells) with increasing dose ([1]; agent alone, 24 h exposure): fluorescence declined
- percent of the cancer cells caused to die ([1]; doxorubicin alone, 1.58 μM, 24 h): 36%
- reduction in the number of cells from the baseline ([1]; doxorubicin alone, 0.002 to 0.158 μM): no statistically significant reduction; also recorded: had no effect
- doses giving a statistically significant decrease in live cells [2]: ≥ 0.5 µM

SMILES: O=c1[nH]cc(F)c(=O)[nH]1 [fluorouracil]
- doses giving a significant decrease in cell numbers ([1]; agent alone): ≥ 1.58 µM
- dose that had to be reached before the agent alone had more than little effect ([1]; agent alone, lung cancer spheroids): ≥ 1.58 µM
- effect of the agent alone on ovarian cancer clusters [2]: the dose response was minimal
- dose that had to be reached before the agent alone had an effect [2]: ≥ 3.16 µM

SMILES: CN(Cc1cnc2nc(N)nc(N)c2n1)c1ccc(C(=O)N[C@@H](CCC(=O)O)C(=O)O)cc1 [methotrexate]
- effect of the agent alone on lung cancer spheroids ([1]; agent alone): no effect alone

SMILES: CC(=O)O[C@H]1C(=O)[C@@]2(C)[C@H]([C@H](OC(=O)c3ccccc3)[C@]3(O)C[C@H](OC(=O)[C@H](O)[C@@H](NC(=O)c4ccccc4)c4ccccc4)C(C)=C1C3(C)C)[C@]1(OC(C)=O)CO[C@@H]1C[C@@H]2O [paclitaxel]
- dose at which the number of live cells is reduced (other doses not significant) ([1]; paclitaxel alone): 5 µM
- doses giving a statistically significant decrease in live cells [2]: 0.01 µM
- dose that had to be reached before the agent alone had an effect [2]: ≥ 31.6 µM
- effect on cancer cell death [3]: no effect on cancer cell death
